Laboratory results from patent US20070172815A1 (priority 2000, published 2007).

How the values were obtained:
[1] = tested on: native, untransfected HEK cells; experiment: Control: BTC fluorescence in native, untransfected HEK cells under identical conditions; format: cell-based, human
Source text: A person of ordinary skill in the art will understand that control experiments can be performed to facilitate analysis of the effects of the candidate modulator. Control experiments can be performed using: (1) native, untransfected cells under identical conditions of the methods of the invention; (2) the addition of thallium ions to the test mixture in the absence of stimulus solution; (3) cells under identical conditions of the methods of the invention, but without the candidate modulator of the ion channels, channel-linked receptors or ion transporters added to the test mixture; and/or (4) cells under identical conditions to the methods of the invention, but using known modulators of the ion channels, channel-linked receptors or ion transporters.
(§1) Once loaded, apamin (5 μl/well of 500 nM stock dissolved in Cl^−-free assay buffer (Table II) or an equivalent volume of Cl^−-free assay buffer) was added. The microtiter plates were then transferred to the plate reader, FLIPR. After, or coincident with exposure to apamin or Cl^−-free assay buffer alone, the cells were exposed to 5 μl/well of a stimulus buffer containing 5 μM ionomycin (Calbiochem) and 7.5 mM Tl2SO4 dissolved in Cl^−-free assay buffer containing 2 mM amaranth and 1 mM tartrazine.

[2] = biological target: T1, large conductance calcium-activated K+ channel, Maxi-K (a.k.a. BK, slo) (Homo sapiens, UniProt Q12791); experiment: Thallium influx assay (BTC fluorescence) in HEK-293 cells stably transfected with Maxi-K; format: cell-based
T1 construct: expressed in transfected cells
T1 sequence (Q12791 whole entry): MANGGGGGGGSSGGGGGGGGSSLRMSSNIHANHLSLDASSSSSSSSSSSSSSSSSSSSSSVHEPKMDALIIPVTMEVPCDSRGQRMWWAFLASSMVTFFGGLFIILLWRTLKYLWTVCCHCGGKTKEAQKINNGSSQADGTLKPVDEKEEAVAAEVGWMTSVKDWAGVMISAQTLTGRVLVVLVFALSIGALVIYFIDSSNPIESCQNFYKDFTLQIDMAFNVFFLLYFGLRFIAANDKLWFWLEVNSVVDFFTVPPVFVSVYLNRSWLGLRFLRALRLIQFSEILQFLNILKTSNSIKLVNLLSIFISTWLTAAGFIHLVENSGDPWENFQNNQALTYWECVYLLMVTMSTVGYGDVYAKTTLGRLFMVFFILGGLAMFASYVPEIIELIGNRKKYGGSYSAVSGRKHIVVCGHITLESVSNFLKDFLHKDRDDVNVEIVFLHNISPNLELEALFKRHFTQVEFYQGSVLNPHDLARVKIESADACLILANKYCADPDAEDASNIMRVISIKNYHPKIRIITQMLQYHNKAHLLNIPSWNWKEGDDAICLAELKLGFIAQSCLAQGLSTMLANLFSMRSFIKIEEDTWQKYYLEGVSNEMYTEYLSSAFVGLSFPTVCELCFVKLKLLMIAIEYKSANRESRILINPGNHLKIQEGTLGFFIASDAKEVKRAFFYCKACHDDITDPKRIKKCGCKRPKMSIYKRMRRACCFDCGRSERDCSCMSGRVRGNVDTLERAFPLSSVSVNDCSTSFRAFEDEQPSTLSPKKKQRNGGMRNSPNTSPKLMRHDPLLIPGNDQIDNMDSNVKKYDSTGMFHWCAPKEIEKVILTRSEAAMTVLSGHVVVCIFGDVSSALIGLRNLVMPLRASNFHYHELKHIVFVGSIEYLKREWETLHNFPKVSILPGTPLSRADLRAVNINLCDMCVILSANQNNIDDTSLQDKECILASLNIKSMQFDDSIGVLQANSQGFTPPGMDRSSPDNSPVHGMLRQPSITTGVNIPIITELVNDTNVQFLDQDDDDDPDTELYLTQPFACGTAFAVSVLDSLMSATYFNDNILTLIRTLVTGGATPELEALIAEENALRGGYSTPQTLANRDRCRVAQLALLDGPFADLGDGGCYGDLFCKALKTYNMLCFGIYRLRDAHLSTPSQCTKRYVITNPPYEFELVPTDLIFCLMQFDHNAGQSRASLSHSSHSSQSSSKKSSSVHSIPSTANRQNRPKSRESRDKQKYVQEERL
Experimental: HEK-293 cells were stably transfected with Maxi-K channels. […] The channel opener used was NS-1619 (Sigma-Aldrich, St Louis, Mo.) at a final concentration of 15 μM. The channel blocker used was Iberiotoxin (Sigma-Aldrich, St. Louis, Mo.) at a final concentration of 100 nM.
To detect channel blockers, the assay was started by adding 11 μl of stimulus buffer containing: 15 μM ionomycin, 12.5 Tl2SO4 and 50 mM K2SO4 dissolved in the Cl^−-free assay buffer (Table II) containing 2 mM amaranth and 1 mM tartrazine.
To detect channel openers, the stimulus buffer was identical to the assay conditions of the channel blockers with the exception that 5 μM ionomcyin was used in place of 15 μM ionomycin. Under these conditions the channels were submaximally opened, allowing observation of openers of the channels.

[3] = biological target: T2, non-selective cation channel vanilloid receptor (VR1) (Homo sapiens, UniProt Q8NER1); experiment: Thallium influx assay (BTC fluorescence) in CHO cells stably expressing VR1; format: cell-based
T2 construct: expressed in transfected cells
T2 sequence (Q8NER1 whole entry): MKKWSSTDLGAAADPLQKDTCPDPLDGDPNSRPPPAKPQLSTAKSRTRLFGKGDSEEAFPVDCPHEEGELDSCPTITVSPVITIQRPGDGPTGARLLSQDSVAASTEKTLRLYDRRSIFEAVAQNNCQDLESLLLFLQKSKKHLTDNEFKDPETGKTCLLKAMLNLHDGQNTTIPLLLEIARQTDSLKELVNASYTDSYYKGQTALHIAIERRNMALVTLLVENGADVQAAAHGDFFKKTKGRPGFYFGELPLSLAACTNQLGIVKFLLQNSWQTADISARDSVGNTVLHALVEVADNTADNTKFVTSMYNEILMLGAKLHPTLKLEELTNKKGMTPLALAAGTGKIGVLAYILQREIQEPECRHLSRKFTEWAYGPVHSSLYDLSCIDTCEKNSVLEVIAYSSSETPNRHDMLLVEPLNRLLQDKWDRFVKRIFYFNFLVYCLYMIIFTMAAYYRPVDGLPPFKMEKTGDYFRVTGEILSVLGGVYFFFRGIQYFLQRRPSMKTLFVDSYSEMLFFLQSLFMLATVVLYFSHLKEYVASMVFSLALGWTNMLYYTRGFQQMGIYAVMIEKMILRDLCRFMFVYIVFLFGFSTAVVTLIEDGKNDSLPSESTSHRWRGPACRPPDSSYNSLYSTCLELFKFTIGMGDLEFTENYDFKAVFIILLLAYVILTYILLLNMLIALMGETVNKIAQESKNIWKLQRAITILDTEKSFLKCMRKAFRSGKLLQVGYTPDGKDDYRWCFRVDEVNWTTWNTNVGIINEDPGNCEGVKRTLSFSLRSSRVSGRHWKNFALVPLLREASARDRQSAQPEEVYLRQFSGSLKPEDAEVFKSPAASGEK
Experimental: (§2) A HEK-293 cell line (obtained from ATCC, Manassas, Va.) stably expressing the small conductance calcium-activated K^+ channel (SK2) was seeded at ~80% confluence in a 384 well microtiter plate, coated with poly-D-lysine plates, containing 20 μl/well low Cl^− cell growth medium. The cells were allowed to incubate overnight at 37 C in a 5% CO2 incubator.
(§3) The cell-containing plates were removed from the incubator and loaded for approximately 15 min with 2 μM BTC-AM (Molecular Probes, Eugene, Oreg.) dissolved in 20 μL/well Cl^−-free assay buffer containing amaranth and tartrazine (the final concentration in the assay is 2 mM amaranth and 1 mM tartrazine). The AM ester of BTC (BTC-AM) is membrane permeant. As it diffuses across the membrane, it is cleaved by cellular esterases, producing a charged, membrane impermeant dye, BTC. These types of dyes and loading mechanisms are well known to those familiar with the art.
The microtiter plates were then transferred to the plate reader, FLIPR.
(§4) All data shown were collected using the FLIPR (Molecular Devices, Sunnyvale, Calif). […] 10 seconds of baseline prior to addition of the stimulus buffer.
All experimental conditions for this example were the same as Example II with the following exceptions: • 1. The cell line CHO stably expressing the non-selective cation channel vanilloid receptor (VR1) was used. • 2. The channel antagonist, capsazepine (Sigma-Aldrich, RBI St Louis, Mo.) was applied at a final concentration of 10 μM; and • 3. The assay was started by adding 5 μl of stimulus buffer containing: 1 μM capsaicin and 7.5 mM Tl2SO4 dissolved in a Cl^−-free assay buffer containing 2 mM amaranth and 1 mM tartrazine.

[4] = biological target: T3, small conductance calcium-activated K+ channel (SK2) (Homo sapiens, UniProt Q9H2S1); experiment: Thallium influx assay (BTC fluorescence, FLIPR) in HEK-293 cells stably expressing SK2; format: cell-based; conditions: stimulus buffer with 5 μM ionomycin and 7.5 mM Tl2SO4; FIG. 1
T3 construct: expressed in transfected cells
T3 sequence (Q9H2S1 whole entry): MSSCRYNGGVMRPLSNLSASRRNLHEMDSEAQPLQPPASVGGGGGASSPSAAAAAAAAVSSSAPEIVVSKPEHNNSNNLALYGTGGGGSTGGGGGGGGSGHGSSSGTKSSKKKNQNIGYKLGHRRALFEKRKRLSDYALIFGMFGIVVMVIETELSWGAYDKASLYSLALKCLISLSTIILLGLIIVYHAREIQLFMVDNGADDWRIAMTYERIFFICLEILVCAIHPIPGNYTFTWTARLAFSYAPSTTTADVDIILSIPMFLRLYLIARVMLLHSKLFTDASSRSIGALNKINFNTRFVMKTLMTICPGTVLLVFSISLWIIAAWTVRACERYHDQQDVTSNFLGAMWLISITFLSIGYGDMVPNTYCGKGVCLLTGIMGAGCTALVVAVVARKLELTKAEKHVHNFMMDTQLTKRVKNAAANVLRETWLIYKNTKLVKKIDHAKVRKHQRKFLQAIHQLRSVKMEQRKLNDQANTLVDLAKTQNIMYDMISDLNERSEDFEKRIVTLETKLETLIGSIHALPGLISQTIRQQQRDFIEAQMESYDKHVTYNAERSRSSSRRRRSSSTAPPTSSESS
Experimental: as §1

[5] = biological target: T3, small conductance calcium-activated K+ channel (SK2); experiment: Thallium efflux assay (FluoZin-1 fluorescence) in SK2 expressing HEK-293 cells; format: cell-based; conditions: stimulus buffer with 5 μM ionomycin; cells preloaded with thallium; FIG. 5
Experimental: Instead of loading the cells with 2 μM BTC-AM, the cells were loaded with 2 μM FluoZin-1 (Molecular Probes, Eugene, Oreg.)
After loading the cells with FluoZin-1, the cells were exposed to 10 μl/well of Cl^−-free assay buffer containing 7.5 mM Tl2SO4 for 10 minutes at room temperature. This step loads the cells with thallium which interacts with the thallium ion sensitive fluorescent dye FluoZin-1 and increases its fluorescence.
Following loading the cells with thallium ions, the solution bathing the cells was aspirated off, and replaced with 80 μl/well of Cl^−-free assay buffer.

[6] = biological target: Muscarinic acetylcholine receptor (Homo sapiens, UniProt P20309)
Chain of Muscarinic acetylcholine receptor (P20309 whole entry): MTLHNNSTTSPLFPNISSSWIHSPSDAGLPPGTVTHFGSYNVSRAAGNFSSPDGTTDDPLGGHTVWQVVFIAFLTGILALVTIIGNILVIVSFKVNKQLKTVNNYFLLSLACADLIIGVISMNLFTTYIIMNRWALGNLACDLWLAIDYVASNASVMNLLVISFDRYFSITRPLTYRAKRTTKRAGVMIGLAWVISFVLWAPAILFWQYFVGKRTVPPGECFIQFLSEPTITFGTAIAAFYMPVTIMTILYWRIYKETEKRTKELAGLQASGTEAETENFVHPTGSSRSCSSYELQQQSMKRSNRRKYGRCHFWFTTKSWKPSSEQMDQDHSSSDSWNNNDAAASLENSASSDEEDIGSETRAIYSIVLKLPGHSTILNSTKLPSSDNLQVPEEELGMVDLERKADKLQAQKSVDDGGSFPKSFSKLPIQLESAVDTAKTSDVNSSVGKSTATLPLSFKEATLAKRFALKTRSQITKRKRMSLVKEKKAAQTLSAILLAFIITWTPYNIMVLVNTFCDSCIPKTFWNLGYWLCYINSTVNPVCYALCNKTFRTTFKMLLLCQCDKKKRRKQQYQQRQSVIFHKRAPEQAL
Experimental: as §2, §3, §4

[7] = biological target: T4, voltage-gated K+ channel KCNQ2 (Mus musculus, UniProt Q9Z351); experiment: Thallium influx assay (BTC fluorescence) in HEK-293 cells stably transfected with KCNQ2; format: cell-based; conditions: 15 μM final; thallium ions (5 mM) and K+ (20 mM); FIG. 3A
T4 construct: expressed in transfected cells
T4 sequence (Q9Z351 whole entry): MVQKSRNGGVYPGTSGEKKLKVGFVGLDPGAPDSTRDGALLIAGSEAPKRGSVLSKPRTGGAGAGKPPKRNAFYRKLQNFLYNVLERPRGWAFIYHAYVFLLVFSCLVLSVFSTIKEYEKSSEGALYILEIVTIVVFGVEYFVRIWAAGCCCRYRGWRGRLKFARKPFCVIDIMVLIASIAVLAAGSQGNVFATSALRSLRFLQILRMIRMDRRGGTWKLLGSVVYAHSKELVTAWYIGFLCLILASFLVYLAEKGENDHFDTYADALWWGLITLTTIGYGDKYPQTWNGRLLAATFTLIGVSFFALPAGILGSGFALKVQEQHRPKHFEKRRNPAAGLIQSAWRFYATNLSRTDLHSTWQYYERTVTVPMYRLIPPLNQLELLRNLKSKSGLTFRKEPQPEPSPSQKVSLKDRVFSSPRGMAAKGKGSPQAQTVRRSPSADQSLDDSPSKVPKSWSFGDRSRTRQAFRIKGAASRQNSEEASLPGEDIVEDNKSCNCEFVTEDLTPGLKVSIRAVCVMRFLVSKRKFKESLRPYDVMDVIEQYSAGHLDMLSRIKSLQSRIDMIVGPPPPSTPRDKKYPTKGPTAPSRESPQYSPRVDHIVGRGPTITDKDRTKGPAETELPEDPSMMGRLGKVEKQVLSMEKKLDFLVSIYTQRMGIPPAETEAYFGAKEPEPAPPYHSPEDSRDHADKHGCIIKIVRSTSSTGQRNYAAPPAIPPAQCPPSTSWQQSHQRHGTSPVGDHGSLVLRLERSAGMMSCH
Experimental: as §1
HEK-293 cell line stably transfected with the voltage-gated K^+ channel KCNQ2 was used; • 2. The channel opener used was retigabine (Main, M. J., et al., Mol. Pharmacol., 2000, 58, 253-62) at a final concentration of 15 μM; and • 3. The channel blocker DMP-543 (Zaczek, R., et al., J. Pharmacol. Exp. Ther. 1998, 285, 724-30) used was at a final concentration of 15 μM.
To detect channel blockers the KCNQ2 channels were opened with a combination of thallium ions (5 mM) and K^+ (20 mM). To detect openers the assay was initiated with thallium ions (3 mM).
To detect channel blockers the assay was started by adding 11 μl of stimulus buffer containing: 12.5 mM Tl2SO4 and 50 mM K2SO4 dissolved in the Cl^−-free assay buffer (Table II) containing 2 mM amaranth and 1 mM tartrazine. […]

[8] = Example III (Maxi-K) conditions

O=c1[nH]c2cc(C(F)(F)F)ccc2n1-c1cc(C(F)(F)F)ccc1O [NS-1619]
Effect on the fluorescence of BTC loaded into native, untransfected HEK cells [1, 8]: Neither iberiotoxin nor NS-1619 had any effects | Effect of opener on the thallium-induced increase in BTC fluorescence compared to absence of opener [2]: marked increase

COc1cc(CNC(=O)CCCC/C=C/C(C)C)ccc1O [capsaicin]
Effect of compound alone on BTC fluorescence in VR1 expressing CHO cells [3]: small decrease, but no increase | Change in BTC fluorescence upon addition of thallium and agonist ([3]; stimulus buffer with 1 μM capsaicin and 7.5 mM Tl2SO4, FIG. 4): substantial increase

C[C@H](CCC(=O)O)C[C@H](C)C[C@H](C)C(=O)/C=C(\O)[C@H](C)C[C@H](C)C/C=C/[C@@H](C)[C@@H](O)[C@@H](C)[C@@H](O)C[C@@H]1CC[C@@](C)([C@H]2CC[C@@](C)([C@@H](C)O)O2)O1 [ionomycin]
Change in BTC fluorescence upon addition of thallium ions plus ionomycin (activation of SK2) [4]: substantial increase | Change in FluoZin-1 fluorescence upon addition of ionomycin (thallium efflux via activated SK channel) [5]: decrease in fluorescence

C[N+](C)(C)CC#CCN1CCCC1=O [oxo-M, oxotremorine-M]
Change in BTC fluorescence upon addition of muscarinic receptor agonist [6]: increase in BTC fluorescence

Oc1cc2c(cc1O)CN(C(=S)NCCc1ccc(Cl)cc1)CCC2 [capsazepine]
Effect of antagonist on the thallium/capsaicin-induced increase in BTC fluorescence ([3]; 10 μM final, FIG. 4): completely abolished | Effect of compound alone on BTC fluorescence in VR1 expressing CHO cells [3]: no effect

O=C1c2ccccc2C(Cc2ccnc(F)c2)(Cc2ccnc(F)c2)c2ccccc21 [DMP-543]
Effect on the fluorescence of BTC loaded into native, untransfected HEK cells ([1]; Example IV (KCNQ2) conditions): Neither DMP-543 nor retigabine had any effects | Effect of blocker on the thallium/potassium-induced increase in BTC fluorescence [7]: completely abolished

Iberiotoxin (QFTDVDCSVSKECWSVCKDLFGVDRGKCMGKKCRCYQ; UniProt P24663 1-37, looked up)
Effect on the fluorescence of BTC loaded into native, untransfected HEK cells [1, 8]: Neither iberiotoxin nor NS-1619 had any effects | Effect of blocker on the thallium/ionomycin/potassium-induced increase in BTC fluorescence ([2]; 100 nM final, stimulus buffer with 15 μM ionomycin, FIG. 2A): completely abolished
